Source: ChEMBL document CHEMBL1158752, “Microbial transformation of 20(S)-protopanaxatriol by Mucor spinosus” (J Nat Prod, 2005)

What was measured:
HL-60 (human) = assay: Cytotoxicity against human HL60 cells after 48 hrs by MTT assay; details: HL-60, 48 h
BGC-823 (human) = assay: Cytotoxicity against human BGC823 cells after 48 hrs by MTT assay; details: BGC-823, 48 h

Compound | IC50 (HL-60 (human)) [µM] | IC50 (BGC-823 (human)) [µM]
CC(C)=CCC[C@](C)(O)[C@H]1CC[C@]2(C)[C@@H]1[C@H](O)C[C@@H]1[C@@]3(C)CC[C@H](O)C(C)(C)[C@@H]3[C@@H](O)C[C@]12C | 16 | –
C/C(=C\CC[C@](C)(O)[C@H]1CC[C@]2(C)[C@H]1[C@H](O)C[C@@H]1[C@@]3(C)CC[C@H](O)C(C)(C)[C@@H]3[C@@H](O)C[C@]12C)CO | 12.3 | > 100
C/C(=C/CC[C@](C)(O)[C@H]1CC[C@]2(C)[C@H]1C(=O)C[C@@H]1[C@@]3(C)CC[C@H](O)C(C)(C)[C@@H]3[C@@H](O)C[C@]12C)CO | 10.8 | > 100
C/C(=C\CC[C@](C)(O)[C@H]1CC[C@]2(C)[C@H]1C(=O)C[C@@H]1[C@@]3(C)CC[C@H](O)C(C)(C)[C@@H]3[C@@H](O)C[C@]12C)CO | 16.3 | > 100
CC(C)=CCC[C@](C)(O)[C@H]1C[C@H](O)[C@]2(C)[C@H]1C(=O)C[C@@H]1[C@@]3(C)CC[C@H](O)C(C)(C)[C@@H]3[C@@H](O)C[C@]12C | 15 | > 100
